Results reported in patent publication US4264597A, “Cephalosporin analogues and processes for the preparation thereof” (priority 1978, dated 1981).
Values after ≈ are worked out from the molar mass of the structure shown.

Tested on: T. asteroides
Experiment: In vitro antimicrobial activity, two-fold agar-plate dilution method (MIC)
Type: cell-based
Details: overnight culture in Trypticase-soy broth (10^4-5 viable spores per ml) streaked on HI-agar, incubation at 37° C. for 20 hours
Description: In vitro antibacterial activity was determined by the two-fold agar-plate dilution method as described below. One loopful of an overnight culture of each test strain in Trypticase-soy broth (10^4-5 viable spores per ml) was streaked on heart infusion sugar (HI-agar) containing graded concentrations of antibiotics, and the minimal inhibitory concentration (MIC) was expressed in terms of μg/ml after incubation at 37° C. for 20 hours.

MIC | SMILES
100 µg/mL (≈ 228 µM) | O=C(COc1ccccc1)N[C@@H]1C(=O)N2C(C(=O)OCc3ccccc3)=CC(=O)S[C@H]12 [(1)]
200 µg/mL (≈ 473 µM) | O=C(COc1ccccc1)N[C@@H]1C(=O)N2C(C(=O)OCc3ccccc3)=CC(=O)O[C@H]12 [(2)]
